The nature of this series: Andersen Cascade Impactor (ACI) evaluation of pMDI spray drug delivery characteristics. The series is classed as physicochemical. As for the experimental part:
Spray characteristics of the system were evaluated by an Andersen cascade impactor fitted with a USP throat (App. 1, USP 33). […] This was repeated twice. Pre- and post-shot weights were recorded. […] The solutions were analysed by using a UPLC/MS (Ultra Performance Liquid Chromatography/Mass Spectrometry) system for the determination of the drug deposition.

[1] abbreviates: Ex 2/3, Standard MDI, single can, 0.22 mm orifice, mean, n=3.
Setting [2] is: Ex 2, Dual MDI, Formulations 3+4, single 0.22 mm orifice, mean, n=2.
The mark [3] stands for this setting: Ex 3, Dual MDI, Formulation 3 + placebo Formulation 5, single 0.22 mm orifice, mean, n=3.
[4] abbreviates: Ex 5, Dual-MDI, Formulations 8+3, single 0.22 mm orifice, mean, n=3.
Setting [5] is: Ex 19, dual reservoir-single orifice prototype (FIG. 14B).
Setting [6] is: Ex 19, dual reservoir-single orifice prototype (FIG. 14B), BDP/Formoterol 100/6 μg/25 μl + glycopyrronium bromide 12.5 μg/25 μl.
The mark [7] stands for this setting: Ex 20, triple reservoir-single orifice prototype (FIG. 16B).
[8] abbreviates: Ex 20, triple reservoir-single orifice prototype (FIG. 16B), BDP/Formoterol + glycopyrronium bromide + budesonide 50 μg/25 μl.

On to `COc1ccc(C[C@@H](C)NC[C@H](O)c2ccc(O)c(NC=O)c2)cc1.COc1ccc(C[C@@H](C)NC[C@H](O)c2ccc(O)c(NC=O)c2)cc1.O=C(O)/C=C/C(=O)O` [Formoterol, Formoterol fumarate], for which the “Delivered Dose” value was determined as 4.1 µg (Ex 2/3, Standard MDI, single can (BDP 100 μg/50 μl or formoterol fumarate 6 μg/50 μl), 0.22 mm orifice, mean, n=3); 3.2 µg (Ex 2, Dual MDI, Formulation 3 (formoterol fumarate 6 μg/25 μl) + Formulation 4 (BDP 100 μg/25 μl, glycerol) mixed, single 0.22 mm orifice, mean, n=2); 4.2 µg (Ex 3, Dual MDI, Formulation 3 (formoterol 6 μg/25 μl) + placebo Formulation 5 (glycerol), single 0.22 mm orifice, mean, n=3); 3.5 ± 0.7 µg (Ex 5, Dual-MDI, Formulation 8 (budesonide 400 μg/63 μl) + Formulation 3 (formoterol 6 μg/25 μl), single 0.22 mm orifice, mean, n=3); 3.6 µg under setting [5]; 3.3 µg under setting [7]. The “FPD ≦ 5 μm” value amounted to 2.1 µg under setting [1], 1.9 µg under setting [2], 2.7 µg under setting [3] and 1.9 ± 0.2 µg under setting [4]. Also, the FPF is, setting by setting: under setting [1], 51.9%; under setting [2], 61.1%; under setting [3], 64.0%; under setting [4], 53.6 ± 6.6%; under setting [5], 44.3%; under setting [7], 33.9%. The MMAD runs as follows: under setting [1], 0.9 μm; under setting [2], 2.1 μm; under setting [3], 1.5 μm; under setting [4], 1.7 ± 0.1 μm; under setting [5], 1.3 μm; under setting [7], 1.5 μm. In addition, the FPD runs as follows: under setting [5], 1.6 µg; under setting [7], 1.1 µg. The “Metered Dose” value under setting [6] came out at 5.7 µg and the “Metered Dose” value under setting [8] was determined as 5.2 µg.
Consider `C[N+]1(C)CCC(OC(=O)C(O)(c2ccccc2)C2CCCC2)C1` (stereo not drawn) [Glycopyrronium bromide], for which, under setting [5], the “Delivered Dose” value was determined as 7.9 µg, the FPD turned out to be 3.5 µg, the FPF came to 44.1% and the MMAD was 1.3 μm. Besides, the “Metered Dose” value under setting [6] is 11.3 µg. In addition, under setting [7], the “Delivered Dose” value was 6.9 µg, the FPD is 2.2 µg, the FPF was 32.4% and the MMAD came to 1.4 μm. Also, under setting [8], the “Metered Dose” value stood at 10.8 µg.

For the origin of these results see patent US20120055467A1, “METERED-DOSE INHALER AND METHOD OF USING THE SAME” (CHIESI FARMACEUTICI S.P.A., priority 2010, published 2012).
